# System: KRAS patient-derived spheroids with HUVEC/MSC, viability
# Test: Anticancer human tumor 323965-272-R-J2-PDC patient-derived pancreatic carcinoma cell line growth inhibition [KRAS2]
# Details: for viability, T/C: stronger effect = lower value
# How it was run: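 KRAS-mutant tumor cells were grown as spheroids with HUVEC endothelial cells and human MSCs as stroma. Targeted agents were tested alone and with KRAS pathway inhibitors. Doses started at or near clinical Cmax, or 10 microM, descending half-log.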
# [1] = curve of first compound, second compound 0.1 µM
# [2] = curve of first compound, second compound 0.316 µM
# [3] = curve of first compound, second compound 1 µM
# [4] = curve of first compound, second compound 3.16 µM
# [5] = second compound 0.1 µM, first compound 0.0316 µM
# [6] = second compound 0.1 µM, first compound 0.1 µM
# [7] = second compound 0.1 µM, first compound 0.316 µM
# [8] = second compound 0.1 µM, first compound 1 µM
# [9] = second compound 0.1 µM, first compound 3.16 µM
# [10] = second compound 0.1 µM, first compound 10 µM
# [11] = second compound 0.316 µM, first compound 0.0316 µM
# [12] = second compound 0.316 µM, first compound 0.1 µM
# [13] = second compound 0.316 µM, first compound 0.316 µM
# [14] = second compound 0.316 µM, first compound 1 µM
# [15] = second compound 0.316 µM, first compound 3.16 µM
# [16] = second compound 0.316 µM, first compound 10 µM
# [17] = second compound 1 µM, first compound 0.0316 µM
# [18] = second compound 1 µM, first compound 0.1 µM
# [19] = second compound 1 µM, first compound 0.316 µM
# [20] = second compound 1 µM, first compound 1 µM
# [21] = second compound 1 µM, first compound 3.16 µM
# [22] = second compound 1 µM, first compound 10 µM
# [23] = second compound 3.16 µM, first compound 0.0316 µM
# [24] = second compound 3.16 µM, first compound 0.1 µM
# [25] = second compound 3.16 µM, first compound 0.316 µM
# [26] = second compound 3.16 µM, first compound 1 µM
# [27] = second compound 3.16 µM, first compound 3.16 µM
# [28] = second compound 3.16 µM, first compound 10 µM
# 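Further: spheroids exposed to agents for 7 days.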
# 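Wherever viability, T/C is given: 100% = DMSO vehicle control viability.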
Compound,IC50 [1] [nM],IC50 [2] [nM],IC50 [3] [nM],IC50 [4] [nM],"viability, T/C [5] [%]","viability, T/C [6] [%]","viability, T/C [7] [%]","viability, T/C [8] [%]","viability, T/C [9] [%]","viability, T/C [10] [%]","viability, T/C [11] [%]","viability, T/C [12] [%]","viability, T/C [13] [%]","viability, T/C [14] [%]","viability, T/C [15] [%]","viability, T/C [16] [%]","viability, T/C [17] [%]","viability, T/C [18] [%]","viability, T/C [19] [%]","viability, T/C [20] [%]",also measured
Cn1nccc1Nc1nccc(-c2cc3c(s2)C(C)(C)N(CCN2CCOCC2)C3=O)n1 + C=CC(=O)N1CCN(c2nc(=O)n(-c3c(C)ccnc3C(C)C)c3nc(-c4c(O)cccc4F)c(F)cc23)C(C)C1,67.8,< 31.6,< 31.6,> 10000,52,49.4,46.8,38.2,32.6,36,48.3,48,41.8,46.1,40,42.4,53.8,50,45.1,43.2,"IC50 (curve of first compound, second compound 10 µM): < 31.6 nM; viability, T/C [21]: 43.9%; viability, T/C [22]: 60.7%; viability, T/C [23]: 51.5%; viability, T/C [24]: 53%; viability, T/C [25]: 48%; viability, T/C [26]: 47.6%; viability, T/C [27]: 51.3%; viability, T/C [28]: 71.1%; viability, T/C (second compound 10 µM, first compound 0.0316 µM): 45.7%; viability, T/C (second compound 10 µM, first compound 0.1 µM): 45.2%; viability, T/C (second compound 10 µM, first compound 0.316 µM): 42.6%; viability, T/C (second compound 10 µM, first compound 1 µM): 42.5%; viability, T/C (second compound 10 µM, first compound 3.16 µM): 43.3%; viability, T/C (second compound 10 µM, first compound 10 µM): 53.6%"
Cn1nccc1Nc1nccc(-c2cc3c(s2)C(C)(C)N(CCN2CCOCC2)C3=O)n1 + C=CC(=O)N1CCN(c2nc(OCC3CCCN3C)nc3c2CCN(c2cccc4cccc(C)c24)C3)CC1CC#N,< 31.6,58.5,< 31.6,< 31.6,49.1,49.1,39.2,36.4,32.1,36.4,55.5,44.9,40,37.4,30.8,35.5,45.5,41.8,45.8,35.7,"IC50 (curve of first compound, second compound 0.0316 µM): 387 nM; viability, T/C (second compound 0.0316 µM, first compound 0.0316 µM): 59.9%; viability, T/C (second compound 0.0316 µM, first compound 0.1 µM): 59.8%; viability, T/C (second compound 0.0316 µM, first compound 0.316 µM): 50.2%; viability, T/C (second compound 0.0316 µM, first compound 1 µM): 43.2%; viability, T/C (second compound 0.0316 µM, first compound 3.16 µM): 31.5%; viability, T/C (second compound 0.0316 µM, first compound 10 µM): 32.5%; viability, T/C [21]: 28.9%; viability, T/C [22]: 29.5%; viability, T/C [23]: 3.69%; viability, T/C [24]: 4.06%; viability, T/C [25]: 2.62%; viability, T/C [26]: 0.91%; viability, T/C [27]: 0.72%; viability, T/C [28]: 0.53%"
CC(=O)Nc1cccc(-n2c(=O)n(C3CC3)c(=O)c3c(Nc4ccc(I)cc4F)n(C)c(=O)c(C)c32)c1,–,–,–,–,–,–,–,–,–,–,–,–,–,–,–,–,–,–,–,–,"viability, T/C (compound 0.0001 µM): 98.3% [middle of 5 runs]; viability, T/C (compound 0.000316 µM): 90.7% [middle of 5 runs]; viability, T/C (compound 0.001 µM): 76.2% [middle of 5 runs]; viability, T/C (compound 0.00316 µM): 57.5% [middle of 5 runs]; viability, T/C (compound 0.01 µM): 44.7% [middle of 5 runs]; viability, T/C (compound 0.0316 µM): 31.2% [middle of 5 runs]; IC50 (curve of compound): 5.93 nM [middle of 5 runs]"

# From PubChem BioAssay AID1963869 (Molecular Pharmacology Branch, DTP, NCI, 2024)
